{"source": "patent US20130190375A1", "about": "“CARBOXAMIDES” (BAYER CROPSCIENCE AG, priority 2005, published 2013)", "data": [{"tested_on": "Phakopsora pachyrhizi", "assay": "Soya bean rust control test/spray application", "assay_type": "in vivo, Phakopsora pachyrhizi on soya beans (cultivar: Enrei)", "conditions": "active compound application rate 100 ppm; sprayed one day before inoculation; evaluated 14 days after inoculation", "description": "(§1) 5 parts by weight of carboxamide of the formula (I), 142.4 parts by weight of acetone and 7.5 parts by weight of emulsifier (polyoxyethylene alkylphenyl ether) are mixed and adjusted with water to the desired concentration.\n(§2) Soya beans (cultivar: Enrei) were cultivated in plastic containers having a diameter of 7.5 cm. In each case 3 containers, 6 ml of the test substance (preparation as described above) were sprayed onto the seedlings which had reached the 2.3 leaf stage. One day after spraying, the leaves were inoculated with an urediniospore suspension (1×10^5 urediniospores/ml) of Phakopsora pachyrhizi. 14 days after the inoculation, the degree of infection for each container was evaluated and the efficacy was calculated. The phytotoxicity was also monitored.", "units": {"Efficacy in %": "%"}, "values": [{"compound": "Cn1cc(C(=O)Nc2ccc(F)cc2-c2ccc(Cl)c(Cl)c2)c(C(F)F)n1", "note": "[(21), N-(3′,4′-dichloro-5-fluoro-1,1′-biphenyl-2-yl)-3-(difluoromethyl)-1-methyl-1H-pyrazole-4-carboxamide]", "Efficacy in %": 50}, {"compound": "Cn1cc(C(=O)Nc2ccccc2CCC(C)(C)C)c(C(F)F)n1", "note": "[(35), 3-(difluoromethyl)-N-[2-(3,3-dimethylbutyl)phenyl]-1-methyl-1H-pyrazole-4-carboxamide]", "Efficacy in %": 100}, {"compound": "CC(C)CC(C)c1ccccc1NC(=O)c1c(C(F)(F)F)nn(C)c1F", "note": "(stereo not shown) [(5), 3-(trifluoromethyl)-N-[2-(1,3-dimethylbutyl)phenyl]-5-fluoro-1-methyl-1H-pyrazole-4-carboxamide]", "Efficacy in %": 80}, {"compound": "Cc1nn(C)c(F)c1C(=O)Nc1ccccc1CCC(C)(C)C", "note": "[(36), N-[2-(3,3-dimethylbutyl)phenyl]-5-fluoro-1,3-dimethyl-1H-pyrazole-4-carboxamide]", "Efficacy in %": 100}, {"compound": "Cc1nn(C)c(F)c1C(=O)Nc1ccccc1C(C)CC(C)C", "note": "(stereo not shown) [(2), N-[2-(1,3-dimethylbutyl)phenyl]-5-fluoro-1,3-dimethyl-1H-pyrazole-4-carboxamide]", "Efficacy in %": 100}, {"compound": "Cc1nc(C(F)F)c(C(=O)Nc2ccsc2CC[Si](C)(C)C)s1", "note": "[(39), 4-(difluoromethyl)-2-methyl-N-{2-[2-(trimethylsilyl)ethyl]-3-thienyl}-1,3-thiazole-5-carboxamide]", "Efficacy in %": 80}, {"compound": "N-[3′-fluoro-4′-(trifluoromethyl)biphenyl-2-yl]-3-iodo-1-methyl-1H-pyrazole-4-carboxamide [(37)]", "Efficacy in %": 50}, {"compound": "Cn1cc(C(=O)Nc2ccccc2-c2ccc(Cl)cc2)c(I)n1", "note": "[(33), N-(4′-chlorobiphenyl-2-yl)-3-iodo-1-methyl-1H-pyrazole-4-carboxamide]", "Efficacy in %": 50}, {"compound": "3-(difluoromethyl)-N-[2-(1,3-dimethylbutyl)-4-fluorophenyl]-1-methyl-1H-pyrazole-4-carboxamide [(38)]", "Efficacy in %": 95}]}, {"tested_on": "Phakopsora pachyrhizi", "assay": "Soya bean rust control test/spray application", "assay_type": "in vivo, Phakopsora pachyrhizi on soya beans (cultivar: Enrei)", "conditions": "active compound application rate 250 ppm; sprayed one day before inoculation; evaluated 14 days after inoculation", "description": "as §1, §2", "units": {"Efficacy in %": "%"}, "values": [{"compound": "Cn1cc(C(=O)Nc2ccc(F)cc2-c2ccc(Cl)c(Cl)c2)c(C(F)F)n1", "note": "[(21), N-(3′,4′-dichloro-5-fluoro-1,1′-biphenyl-2-yl)-3-(difluoromethyl)-1-methyl-1H-pyrazole-4-carboxamide]", "Efficacy in %": 90}]}]}
